Experimental data taken from US4348264A, “Photocatalyzed process for producing carbapenams and carbapen-2-ems” (Pfizer Inc., priority 1981, dated 1982).
Values after ≈ are worked out from the molar mass of the structure shown.

How the values were obtained:
Format in all cases: cell-based
[1] = system: Bacillus subtilis; assay: Standard disc-plate method, zone of inhibition; details: Bacillus subtilis; 25 microgram discs
From the text: (§1) The utility of the various compounds as intermediates to other compounds of the present invention will be evident from the preceding discussion. The antibacterial activity of these compounds, reflecting their utility in the control of susceptible bacterial infections in man and animals, as animal feed additives for promotion of growth, or as preservatives of materials biodegraded by susceptible microorganisms, is best measured by the standard disc-plate method routinely employed in clinical laboratories for determining the sensitivity of microorganisms to antimicrobial substances. Sensitivity discs are prepared by dipping a standard 6.25 mm. paper disc into a solution of the compound to be tested (conc. 1 mg./ml.) in a volatile solvent (e.g. methylene chloride) and the disc dried, producing discs containing approximately 25 microg. of the compound. The discs are placed on the surface of agar growth media seeded with the test microorganism, previously plated into Petri dishes. The plates are incubated overnight at 35°-37° C. Activity of the test compound is reflected by a zone of inhibition of bacterial growth around the test disc. The diameter of this zone provides a quantitative measure of the activity of the antibacterial substance. The activity of various compounds of the present invention is summarized in Table I. For comparison, results obtained with 10 microg. discs of ampicillin and penicillin G are included as positive controls.

[2] = system: Escherichia coli; assay: Standard disc-plate method, zone of inhibition; details: Escherichia coli, 25 microgram discs
From the text: as §1

[3] = system: Micrococcus luteus; assay: Standard disc-plate method, zone of inhibition; details: Micrococcus luteus; 25 microgram discs
From the text: as §1

[4] = system: Staphylococcus aureus (Antibiotic Resistant); assay: Standard disc-plate method, zone of inhibition; details: Staphylococcus aureus; 25 microgram discs; antibiotic resistant
From the text: as §1

[5] = system: Staphylococcus aureus; assay: Standard disc-plate method, zone of inhibition; details: Staphylococcus aureus; 25 microgram discs
From the text: as §1

[6] = system: Vibrio percolans; assay: Standard disc-plate method, zone of inhibition; details: Comamonas terrigena, 25 microgram discs
From the text: as §1

[7] = system: Proteus morgani; assay: Serial dilution-tube method, MIC; details: brain heart infusion broth; read-out: Minimum Inhibitory Concentration
[8] = system: Citrobacter diversus; assay: Serial dilution-tube method, MIC; details: Citrobacter koseri; brain heart infusion broth; read-out: Minimum Inhibitory Concentration
[9] = system: Enterobacter cloacae; assay: Serial dilution-tube method, MIC; details: Enterobacter cloacae; brain heart infusion broth; read-out: Minimum Inhibitory Concentration
[10] = system: Serratia marcescens; assay: Serial dilution-tube method, MIC; details: Serratia marcescens; brain heart infusion broth; read-out: Minimum Inhibitory Concentration
[11] = system: Klebsiella pneumoniae; assay: Serial dilution-tube method, MIC; details: Klebsiella pneumoniae; brain heart infusion broth; read-out: Minimum Inhibitory Concentration
[12] = system: Pseudomonas aeruginosa; assay: Serial dilution-tube method, MIC; details: Pseudomonas aeruginosa; brain heart infusion broth; read-out: Minimum Inhibitory Concentration
[13] = system: Escherichia coli (Antibiotic Resistant); assay: Serial dilution-tube method, MIC; details: Escherichia coli, brain heart infusion broth, read-out: Minimum Inhibitory Concentration
[14] = system: Escherichia coli; assay: Serial dilution-tube method, MIC; details: Escherichia coli; brain heart infusion broth; read-out: Minimum Inhibitory Concentration
[15] = system: Staphylococcus aureus (Antibiotic Resistant); assay: Serial dilution-tube method, MIC; design: key to synergistic effect with ampicillin: Shows a synergistic effect when tested 1:1 with ampicillin; details: for MIC: Staphylococcus aureus, brain heart infusion broth, read-out: Minimum Inhibitory Concentration
[16] = system: Staphylococcus aureus; assay: Serial dilution-tube method, MIC; details: Staphylococcus aureus; brain heart infusion broth; read-out: Minimum Inhibitory Concentration

CC1=C(C(=O)OCOC(=O)C(C)(C)C)N2C(=O)CC2C1=O (centres unmarked) [H H POM CH3 O II, Pivaloyloxymethyl 2-Methyl-1-oxocarbapen-2-em-3-carboxylate]
zone of inhibition at 25 µg/disc [1]: 37 mm | zone of inhibition at 25 µg/disc [2]: 0 mm | zone of inhibition at 25 µg/disc [3]: 26 mm | zone of inhibition at 25 µg/disc [4]: 18 mm | zone of inhibition at 25 µg/disc [5]: 22 mm | zone of inhibition at 25 µg/disc [6]: 14 mm | MIC [7]: > 200 µg/mL | MIC [8]: > 200 µg/mL | MIC [9]: > 200 µg/mL | MIC [10]: > 200 µg/mL | MIC [11]: > 200 µg/mL | MIC [12]: > 200 µg/mL | MIC [13]: > 200 µg/mL | MIC [14]: > 200 µg/mL | MIC [15]: > 200 µg/mL | MIC [16]: > 200 µg/mL

CC1C(O)C2C(NC(=O)COc3ccccc3)C(=O)N2C1C(=O)OCOC(=O)C(C)(C)C (centres unmarked) [PMA H POM CH3 H OH I, Pivaloyloxymethyl 1-Hydroxy-2-methyl-6-(2-phenoxyacetamido)carbapenam-3-carboxylate]
zone of inhibition at 25 µg/disc [1]: 23 mm | zone of inhibition at 25 µg/disc [2]: 0 mm | zone of inhibition at 25 µg/disc [3]: 14 mm | zone of inhibition at 25 µg/disc [4]: 17 mm | zone of inhibition at 25 µg/disc [5]: 20 mm | MIC [7]: > 200 µg/mL | MIC [8]: > 200 µg/mL | MIC [9]: > 200 µg/mL | MIC [10]: > 200 µg/mL | MIC [11]: > 200 µg/mL | MIC [12]: > 200 µg/mL | MIC [13]: > 200 µg/mL | MIC [14]: > 200 µg/mL | MIC [15]: 200 µg/mL | synergistic effect with ampicillin ([15]; tested 1:1 with ampicillin): a | MIC [16]: 25 µg/mL (≈ 55.7 µM)
